# According to patent US20060019890A1, “Method for treating cardiac remodeling following myocardial injury” (priority 2004, published 2006):
# Columns and labels:
# [1] = tested on: human cardiac fibroblasts; assay: Real-time RT-PCR gene expression in cardiac fibroblasts; format: cell-based; settings: for effect on BNP inhibition of TGFβ-induced Collagen-1 expression, real-time RT-PCR: U0126 0.1-10 μmol/L, PD98059 10 μmol/L; for ACTA2 expression level relative to control / CTGF expression level relative to control / Collagen 1 expression level relative to control / Fibronectin expression level relative to control / IL6 expression level relative to control / IL11 expression level relative to control / PTGS2/COX-2 expression level relative to control / SERPINE1/PAI-1 expression level relative to control / TIMP3 expression level relative to control: normalized to 18s RNA
# Protocol: Real-time RT-PCR^18 was performed in a two-step manner. cDNA synthesis and real-time detection were carried out in a PTC-100™ Thermal Cycler (MJ Research Inc, Waltham, Mass.) and an ABI Prism™ 7700 Sequence Detection System (Applied Biosystems, Foster City, Calif.), respectively. Random hexamers (Qiagen, Valencia, Calif.) were used to generate cDNA from 200 ng RNA as described in Applied Biosystems User Bulletin #2. TaqMan™ PCR Core Reagent Kit or TaqMan™ Universal PCR Master Mix (Applied Biosystems) were used in subsequent PCR reactions according to the manufacturer's protocols. Relative quantitation of gene expression was performed using the relative standard curve method. All real-time RT-PCR reactions were performed in triplicate.
# Sequence specific primers and probes were designed using Primer Express Version 2 software (Applied Biosystems). Sequences of primers and probes can be found in Table 1 below. Expression levels were normalized to 18S rRNA. The selection of 18S rRNA as an endogenous control was based on an evaluation of the ΔCT levels (Applied Biosystems document # 4308134C) of 6 “housekeeping” genes: Cyclophilin A, 18S, GAPDH, β-actin, β-Glucuronidase, and Hypoxanthine Guanine Phosphoribosyl Transferase.
# [2] = tested on: human cardiac fibroblasts; assay: Western blot analysis of Collagen 1 and Fibronectin protein; format: cell-based; settings: 48 h; for effect on BNP inhibition of TGFβ-induced Collagen-1 expression, Western blot: U0126 0.1-10 μmol/L, PD98059 10 μmol/L
# Protocol: (§1) Lysis was induced with 0.2 ml of buffer containing 20 mM Tris-HCL, pH 7.9, 137 mM NaCl, 1% Triton X-100, 5 mM EDTA, 10 mM NaF, 1 mM β-glycerophosphate, and protease inhibitor cocktail. The protein concentration of each lysate was measured using coomassie protein reagent from PIERCE. Twenty μg of protein from each sample was loaded and electrophoresed on 4-12% gradient polyacrylamide gels and electrophoretically transferred to nitrocellulose membranes (Invitrogen, San Diego, Calif.). The membranes were incubated with rabbit anti-human Collagen 1 antibody (Cortex Biochem, San Leandro, Calif.), HRP-conjugated anti-human Fibronectin antibody, or goat anti-Actin antibody (Santa Cruz Biotehnology, Santa Cruz, Calif.) in TBST buffer containing 20 mM Tris-HCl, pH 7.5, 150 mM NaCl, 0.1% Tween-20, and 5% nonfat dried milk at 4° C. for ˜16 h. For ERK phosphorylation, cells were treated with 0.5 μmol/L BNP in the presence of 1 μmol/L KT5823 or 10 μmol/L U0126 for 15 min; the membranes were incubated with rabbit anti-human phospho-ERK ½ antibody or rabbit anti-human ERK ½ antibody (Cell Signaling, Beverly, Mass.). For secondary antibody detection, membranes were incubated with HRP-conjugated anti-rabbit antibody or anti-goat antibody at room temperature for 1 h and washed 3 times with TBST buffer. The blots were soaked in ECL Plus reagent for 5 min and exposed to KODAK x-ray film. Signals were identified and quantified using a Typhoon Scanner and Densitometer from Amersham Biosciences (Piscataway, N.J.). Data was analyzed by ANOVA using the Newman-Keuls test to assess significance. Results cGMP Production in Cardiac Fibroblasts
# ERK = assay: Western analysis of ERK phosphorylation; format: cell-based, human; settings: 15 min; for effect on BNP induced ERK phosphorylation: KT5823 1 μmol/L or U0126 10 μmol/L
# Protocol: as §1
# acute myocardial injury [3] = assay: Cardiac function (Millar pressure volume conductance system) in L-NAME/AngII acute myocardial injury model; format: in vivo, rat; settings: L-NAME/AngII rats
# Protocol: (§2) In a related study, an in vivo model for acute myocardial injury was used to explore the effects of BNP. Male Sprague Dawley rats ranging in weight from 225 to 250 gm were utilized. Acute myocardial injury was induced by administration of Nω-nitro-L-arginine methyl ester (L-NAME, 40 mg/kg/day)salt (1% NaCl) plus angiotensin II (AngII, 0.5 mg/kg/day) in the rats. The L-NAME was administered in drinking water from day 1 to day 14. Angiotensin II was continuously infused subcutaneously with an osmotic pump from day 11 to day 14. Rat BNP ([…]) was intravenously infused through an external infusion pump from day 10 to day 14.
# (§3) Systolic blood pressure, plasma level of aldosterone, cardiac function heart/body weight ration and gene expression in the heart were analyzed. Systolic blood pressure was monitored via tail cuff technique with an IITC blood pressure recording system. Cardiac function was monitored via a Millar ARIA Pressure Volume Conductance System with an 1.4 F catheter. Gene expression as referenced above with results provided in FIG. 12 were monitored by RT-PCR with an ABI Prism™ 7700 sequence detection system.
# [4] = tested on: human cardiac fibroblasts; assay: cDNA microarray gene expression profiling of TGFβ- and/or BNP-treated cardiac fibroblasts
# Protocol: Two lots of primary human cardiac fibroblasts, derived from a person (lot 1) and a person (lot 2), were provided by Cambrex Bio Science (Walkersville, Md.). Cells stained positive for α-smooth muscle actin and vimenfin antibodies corroborating their identity as cardiac fibroblasts and myofibroblasts. Both lots were used for the real-time RT-PCR studies; lot 1 was used for the microarray analysis. Cells at passage 3-5 were cultured in FGM containing 15% FBS. At confluence, cells were split and cultured in 6-well plates for 24 h.
# Gene expression profiles were determined from cDNA microarrays containing 8,600 elements derived from clones isolated from normalized cDNA libraries or purchased from ResGen (Invitrogen Life Technologies, Carlsbad, Calif.). DNA for spotting was generated by PCR amplification using 5′amino-modified primers (BD Biosciences Clontech, Palo Alto, Calif.) derived from flanking vector sequences. Amplified DNA was purified in a 96-well format using Qiagen's Qiaquick columns (Valencia, Calif.) according to the manufacturer's recommendations. Samples were eluted in Milli-Q purified water, dried to completion and resuspended in 7 μl of 3×SSC. A fluorescent assay using PicoGreen (Molecular Probes, Eugene, Oreg.) was randomly performed on 12% of the PCR products to determine the average yield after purification; yields were ˜1.5 μg of DNA which corresponds to a concentration of 214 μg/ml. Purified DNA was arrayed from 384-well microtiter plates onto lysine-coated glass slides using an OmniGrid II microarrayer (GeneMachines, San Carlos, Calif.). After printing, DNA was cross-linked to the glass with 65 mjoules UV irradiation and reactive amines were blocked by treatment with succinic anhydride.
# Total RNA was extracted from cells using Qiagen's RNeasy kit; two wells from a 6 well plate were pooled to yield a total of 4×10^5 cells per treatment. RNA was amplified using a modified Eberwine protocol^5 that incorporated a polyA tail into the amplified RNA. Fluorescently-labeled cDNA probes were generated by reverse transcription of 4 μg of RNA with SuperScript II (Invitrogen Life Technologies, Carlsbad, Calif.) using anchored dT primers in the presence of Cy3 or Cy5 dUTP (Amersham, Piscataway, N.J.). Labeled cDNA probe pairs were precipitated with ethanol and purified using Qiaquick columns. Twenty μg each of poly(A) DNA, yeast tRNA, and human Cot1 DNA (Applied Genetics, Melbourne, Fla.) was added to the eluant. The samples were dried to completion and resuspended in 12.5 μl 3×SSC, 0.1% SDS. Probes were heated to 95° C. for 5 minutes, applied to the arrays under a 22 mm^2 cover slip and allowed to hybridize for at least 16 h at 65° C. The arrays were washed at 55° C. for 10 minutes in 2×SSC, 0.1% SDS, followed by two washes at room temperature in 1×SSC (10 min) and 0.2×SSC (15 min). Hybridization of each fluorophore was quantified using an Axon GenePix 4000A scanner.
# Differential expression values were expressed as the ratio of the median of background-subtracted fluorescent intensity of the experimental RNA to the median of background-subtracted fluorescent intensity of the control RNA. For ratios greater than or equal to 1.0, the ratio was expressed as a positive value. For ratios less than 1.0, the ratio was expressed as the negative reciprocal (i.e., a ratio of 0.5=−2.0). Median ratios were normalized to 1.0 using two pools of 3000 randomly chosen cDNAs in each pool. Six replicates of each of the two pools were printed in 4 evenly distributed blocks of the array. Expression data was rejected if neither channel produced a signal of at least 2.0-fold over background. Differential expression ratios were determined as the mean of the two values from dye-swapped duplicates.
# acute myocardial injury [5] = assay: Heart/body weight ratio in L-NAME/AngII acute myocardial injury model; format: in vivo; settings: L-NAME/AngII rats, rat BNP i.v. infusion day 10 to day 14
# Protocol: as §2, §3
# [6] = Degradation of added BNP in cardiac fibroblast culture (immunoreactive assays and cGMP stimulation cell bioassays); format: in vitro ADME; settings: human, primary human cardiac fibroblasts in culture, within 24 h, read-out: added BNP metabolized
# Protocol: Two lots of primary human cardiac fibroblasts, derived from a person (lot 1) and a person (lot 2), were provided by Cambrex Bio Science (Walkersville, Md.). […] Cells at passage 3-5 were cultured in FGM containing 15% FBS. At confluence, cells were split and cultured in 6-well plates for 24 h.
# acute myocardial injury [7] = assay: Systolic blood pressure (tail cuff) in L-NAME/AngII acute myocardial injury model; format: in vivo; settings: rat BNP i.v. infusion day 10 to day 14
# Protocol: as §2, §3
# acute myocardial injury [8] = assay: Gene expression in the heart by RT-PCR in L-NAME/AngII acute myocardial injury model; format: in vivo, rat; settings: stimulated by L-NAME plus angiotensin II
# Protocol: In a related study, a gene microassay profile of rat heart tissue was conducted. Fibrotic and extracellular matrix associated genes were stimulated in vivo by L-NAME plus angiotensin II.
# as §2, §3
# [9] = Plasma level of aldosterone in L-NAME/AngII acute myocardial injury model; format: in vivo; settings: L-NAME/AngII rats, rat BNP i.v. infusion day 10 to day 14
# Protocol: as §2, §3
# [10] = rat BNP i.v. infusion day 10 to day 14
# [11] = TGFβ-stimulated cells, microarray
structure (smiles),measurement,setting,value
N#CC(=C(/N)Sc1ccccc1N)/C(C#N)=C(\N)Sc1ccccc1N [U0126],"effect on BNP inhibition of TGFβ-induced Collagen-1 expression, real-time RT-PCR",[1]; 48 h,reversed
same,"effect on BNP inhibition of TGFβ-induced Collagen-1 expression, Western blot",[2],reversed
same,effect on BNP induced ERK phosphorylation,ERK,completely blocked
COc1cccc(-c2cc(=O)c3ccccc3o2)c1N [PD98059],"effect on BNP inhibition of TGFβ-induced Collagen-1 expression, real-time RT-PCR",[1]; 48 h,reversed
same,"effect on BNP inhibition of TGFβ-induced Collagen-1 expression, Western blot",[2],reversed
COC(=O)[C@@]1(OC)C[C@H]2O[C@]1(C)n1c3ccccc3c3c4c(c5c6ccccc6n2c5c31)C(=O)N(C)C4 [KT5823],effect on BNP induced ERK phosphorylation,ERK,completely blocked
"CC[C@H](C)[C@@H]1NC(=O)[C@H](CCCNC(=N)N)NC(=O)[C@H](CC(=O)O)NC(=O)[C@H](CCSC)NC(=O)[C@H](CCCCN)NC(=O)[C@H](CCCNC(=N)N)NC(=O)CNC(=O)[C@H](Cc2ccccc2)NC(=O)[C@@H](NC(=O)CNC(=O)[C@H](CO)NC(=O)CNC(=O)[C@H](CCC(N)=O)NC(=O)[C@@H](NC(=O)[C@H](CCSC)NC(=O)[C@H](CCCCN)NC(=O)[C@@H]2CCCN2C(=O)[C@@H](N)CO)C(C)C)CSSC[C@@H](C(=O)N[C@@H](CCCCN)C(=O)N[C@H](C(=O)N[C@@H](CC(C)C)C(=O)N[C@@H](CCCNC(=N)N)C(=O)N[C@@H](CCCNC(=N)N)C(=O)N[C@@H](Cc2c[nH]cn2)C(=O)O)C(C)C)NC(=O)CNC(=O)[C@H](CC(C)C)NC(=O)CNC(=O)[C@H](CO)NC(=O)[C@H](CO)NC(=O)[C@H](CO)NC(=O)[C@H](CO)NC1=O [BNP, brain natriuretic peptide]",effect on cardiac output,acute myocardial injury [3],increases
same,effect on heart rate,acute myocardial injury [3],no effect
same,effect on maximum dP/dt,acute myocardial injury [3],increased
same,effect on minimum dP/dt,acute myocardial injury [3],increased
same,arterial elastance,acute myocardial injury [3]; [10],42.6±5.1 mmHg/ul
same,diastolic volume,acute myocardial injury [3]; [10],22.4 ± 1.1 µL
same,ejection fraction,acute myocardial injury [3]; [10],20.4±2.4%
same,stroke volume,acute myocardial injury [3]; [10],4.74 ± 0.73 µL
same,stroke work,acute myocardial injury [3]; [10],531.5±99.1 mmH*ul
same,TGFβ-regulated gene expression events opposed,[4]; 24 h,~88%
same,TGFβ-regulated gene expression events opposed,[4]; 48 h,~85%
same,"effect on TGFβ-induction of PTGS2 (COX2), TNFAIP6 and TNFSF4",[4]; [11],reversed
same,"effect on TGFβ-regulated cell proliferation genes (PDGFA, IGFBP10, IGF1, PTHLH, CDC25B, CUL5)",[4]; [11],opposed
same,effect on fibrosis and ECM gene cluster up-regulated by TGFβ,[4]; [11],down-regulated
same,effect on gene expression in unstimulated human cardiac fibroblasts,"[4]; microarray, 24 and 48 h",no significant effects
same,effect on TGFβ induction of Collagen 1 mRNA levels,"[1]; 6, 24 and 48 h",blocked
same,ACTA2 expression level relative to control,"[1]; 6 h, lot 1",0.8 ± 0.12
same,CTGF expression level relative to control,"[1]; 6 h, lot 1",0.9 ± 0.24
same,Collagen 1 expression level relative to control,"[1]; 6 h, lot 1",1.0 ± 0.05
same,Fibronectin expression level relative to control,"[1]; 6 h, lot 1",0.9 ± 0.19
same,IL6 expression level relative to control,"[1]; 6 h, lot 1",0.9 ± 0.02
same,IL11 expression level relative to control,"[1]; 6 h, lot 1",1.1 ± 0.04
same,PTGS2/COX-2 expression level relative to control,"[1]; 6 h, lot 1",1.2 ± 0.22
same,SERPINE1/PAI-1 expression level relative to control,"[1]; 6 h, lot 1",0.7 ± 0.08
same,TIMP3 expression level relative to control,"[1]; 6 h, lot 1",0.9 ± 0.11
same,ACTA2 expression level relative to control,"[1]; 24 h, lot 1",0.9 ± 0.11
same,CTGF expression level relative to control,"[1]; 24 h, lot 1",1.0 ± 0.29
same,Collagen 1 expression level relative to control,"[1]; 24 h, lot 1",1.1 ± 0.13
same,Fibronectin expression level relative to control,"[1]; 24 h, lot 1",1.0 ± 0.10
same,IL6 expression level relative to control,"[1]; 24 h, lot 1",0.9 ± 0.21
same,PTGS2/COX-2 expression level relative to control,"[1]; 24 h, lot 1",1.2 ± 0.38
same,SERPINE1/PAI-1 expression level relative to control,"[1]; 24 h, lot 1",0.7 ± 0.01
same,TIMP3 expression level relative to control,"[1]; 24 h, lot 1",1.0 ± 0.12
same,ACTA2 expression level relative to control,"[1]; 24 h, lot 2",0.9 ± 0.25
same,Fibronectin expression level relative to control,"[1]; 24 h, lot 2",0.9 ± 0.24
same,IL6 expression level relative to control,"[1]; 24 h, lot 2",0.9 ± 0.07
same,IL11 expression level relative to control,"[1]; 24 h, lot 2",1.0 ± 0.05
same,SERPINE1/PAI-1 expression level relative to control,"[1]; 24 h, lot 2",0.7 ± 0.11
same,TIMP3 expression level relative to control,"[1]; 24 h, lot 2",0.7 ± 0.09
same,effect on TGFβ-induced Fibronectin mRNA expression,[1]; 48 h,inhibited
same,ACTA2 expression level relative to control,"[1]; 48 h, lot 1",1.0 ± 0.03
same,Collagen 1 expression level relative to control,"[1]; 48 h, lot 1",1.2 ± 0.03
same,Fibronectin expression level relative to control,"[1]; 48 h, lot 1",1.1 ± 0.04
same,IL6 expression level relative to control,"[1]; 48 h, lot 1",0.9 ± 0.03
same,IL11 expression level relative to control,"[1]; 48 h, lot 1",0.7 ± 0.10
same,PTGS2/COX-2 expression level relative to control,"[1]; 48 h, lot 1",1.0 ± 0.12
same,SERPINE1/PAI-1 expression level relative to control,"[1]; 48 h, lot 1",0.9 ± 0.00
same,TIMP3 expression level relative to control,"[1]; 48 h, lot 1",0.9 ± 0.00
same,ACTA2 expression level relative to control,"[1]; 48 h, lot 2",0.7 ± 0.11
same,Collagen 1 expression level relative to control,"[1]; 48 h, lot 2",1.0 ± 0.01
same,Fibronectin expression level relative to control,"[1]; 48 h, lot 2",1.0 ± 0.11
same,IL6 expression level relative to control,"[1]; 48 h, lot 2",0.9 ± 0.06
same,IL11 expression level relative to control,"[1]; 48 h, lot 2",0.8 ± 0.09
same,PTGS2/COX-2 expression level relative to control,"[1]; 48 h, lot 2",1.0 ± 0.06
same,SERPINE1/PAI-1 expression level relative to control,"[1]; 48 h, lot 2",0.8 ± 0.03
same,TIMP3 expression level relative to control,"[1]; 48 h, lot 2",0.6 ± 0.00
same,heart/body weigh ratio,acute myocardial injury [5],0.0029±0.001
same,metabolised at 24 h,[6],50%
same,effect on systolic blood pressure raised by L-NAME+AngII,acute myocardial injury [7],no effect
same,effect on TGFβ-induced Fibronectin protein expression,[2],inhibited
same,inhibition of TGFβ-stimulated Collagen 1 protein synthesis,[2],~75%
same,mRNA expression for collagen I in rat heart,acute myocardial injury [8],markedly reduced
same,mRNA expression for collagen III in rat heart,acute myocardial injury [8],markedly reduced
same,mRNA expression for fibronectin in rat heart,acute myocardial injury [8],markedly reduced
same,plasma aldosterone,[9],6.6 ± 0.16 ng/mL
same,ERK phosphorylation,ERK; BNP 0.5 μmol/L,activates ERK
